Entries after “also recorded” stand apart in the source; their conditions may differ. Where two headings read alike, the source gives them in different places.
Assays:
astrocyte [1] = format: cell-based, mouse
astrocyte [2] = test: Fura-2 Ca2+ imaging of astrocyte during sniffer patch; format: cell-based, mouse; conditions: for TFLLR-induced astrocytic Ca2+ transient: TFLLR 500 μM, 100 ms
Description: On the day of sniffer-patch, cultured astrocytes (HEK cells added) were incubated with 5 μM Fura-2 AM (mixed with 5 μl of 20% Pluronic acid) (Invitrogen) for 40 min and washed at room temperature, and subsequently transferred to a microscope stage for imaging. External solution contained (in mM): 150 NaCl, 10 Hepes, 3 KCl, 2 CaCl2, 2 MgCl2, 5.5 glucose, pH adjusted to pH 7.3 and osmolarity to 325 mOsmol kg^−1. Intensity images of 510 nm wavelength were taken at 340 nm and 380 nm excitation wavelengths using either iXon EMCCD (DV887 DCS-BV, ANDOR technology). Two resulting images were used for ratio calculations in Axon Imaging Workbench version 6.2 (Axon Instruments). GluR1LY-mediated currents were recorded from HEK cells expressing GluR1L497Y under voltage clamp (Vh=−70 mV) using Multiclamp 700B amplifier (Molecular Devices), acquired with pClamp 9.2. Recording electrodes […] were filled with (mM): 110 Cs-Gluconate, 30 CsCl, 0.5 CaCl2, 10 Hepes, 4 Mg-ATP, 0.3 Na3-GTP and 10 BAPTA (pH adjusted to 7.3 with CsOH and osmolarity adjusted to 290-310 mOsm/kg with sucrose). For simultaneous recording, Imaging Workbench was synchronized with pClamp 9.2.

[3] = system: primary cultured astrocyte; format: cell-based, mouse
GluR1-L497Y = GluR1-L497Y (Homo sapiens, UniProt P42261, L497Y); format: cell-based
Chain of GluR1-L497Y (P42261 19-906 L497Y limits assumed): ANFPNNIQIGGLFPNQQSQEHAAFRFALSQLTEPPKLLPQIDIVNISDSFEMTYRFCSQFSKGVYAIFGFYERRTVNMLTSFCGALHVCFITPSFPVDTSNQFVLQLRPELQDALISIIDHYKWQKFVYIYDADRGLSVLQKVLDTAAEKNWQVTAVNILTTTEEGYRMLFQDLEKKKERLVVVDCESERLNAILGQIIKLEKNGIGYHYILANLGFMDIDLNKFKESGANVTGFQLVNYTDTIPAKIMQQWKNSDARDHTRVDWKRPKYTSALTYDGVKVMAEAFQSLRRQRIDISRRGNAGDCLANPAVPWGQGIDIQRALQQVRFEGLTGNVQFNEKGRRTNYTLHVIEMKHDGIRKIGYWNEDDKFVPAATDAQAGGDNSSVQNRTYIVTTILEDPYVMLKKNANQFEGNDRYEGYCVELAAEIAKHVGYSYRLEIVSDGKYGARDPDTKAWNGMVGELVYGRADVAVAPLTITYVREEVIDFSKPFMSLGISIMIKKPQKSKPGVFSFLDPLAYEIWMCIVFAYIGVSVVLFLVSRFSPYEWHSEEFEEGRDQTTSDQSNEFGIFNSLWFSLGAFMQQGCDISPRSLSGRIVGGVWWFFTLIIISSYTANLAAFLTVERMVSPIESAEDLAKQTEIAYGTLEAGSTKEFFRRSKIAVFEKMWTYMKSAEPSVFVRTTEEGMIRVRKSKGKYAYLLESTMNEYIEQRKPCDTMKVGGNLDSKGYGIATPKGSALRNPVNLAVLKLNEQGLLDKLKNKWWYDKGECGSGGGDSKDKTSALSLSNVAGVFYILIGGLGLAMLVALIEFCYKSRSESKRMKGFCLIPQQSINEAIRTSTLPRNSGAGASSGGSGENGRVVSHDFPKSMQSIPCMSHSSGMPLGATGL

CCCCC/C=C\C/C=C\C/C=C\C/C=C\CCCC(=O)NCCCl [ACEA, N-(2-Chloroethyl)-5Z,8Z,11Z,14Z-eicosatetraenamide]
fast-mode of glutamate release induced by the agent itself (astrocyte [1]): induces mainly fast-mode; also recorded: activated a fast-mode; also recorded: induce fast-mode
slow-mode of glutamate release induced by the agent itself (astrocyte [1]): without a measurable Ca^2+ increase or a slow-mode
astrocytic Ca2+ increase induced by the agent itself (astrocyte [2]): without a measurable Ca^2+ increase

CC(=O)OCOC(=O)CN(CC(=O)OCOC(C)=O)c1ccccc1OCCOc1ccccc1N(CC(=O)OCOC(C)=O)CC(=O)OCOC(C)=O [BAPTA-AM, 1,2-bis-(o-inophenoxy)ethane-N,N,N′,N′-tetraacetic Acid Tetra-(acetoxymethyl) Ester]
slow-mode of TFLLR-induced glutamate release [3]: significantly reduced
TFLLR-induced astrocytic Ca2+ transient (astrocyte [2]): completely block; also recorded: eliminated

[Ba+2] [Ba^2+]
fast and slow-modes of TFLLR-induced glutamate release (TFLLR-induced GluR1L497Y-mediated current) [3]: did not show any significant effect

NCC(CC(=O)O)c1ccc(Cl)cc1 (centres unmarked) [Baclofen]
fast-mode of glutamate release induced by the agent itself (astrocyte [1]): activated a fast-mode; also recorded: induces fast-mode
slow-mode of glutamate release induced by the agent itself (astrocyte [1]): without a measurable Ca^2+ increase or a slow-mode
astrocytic Ca2+ increase induced by the agent itself (astrocyte [2]; pressure-applied 100 ms): without a Ca^2+ transient
astrocytic Ca2+ increase induced by the agent itself (astrocyte [2]; pressure-applied 100 ms, listed as baclofen): without a measurable Ca^2+ increase

CC1(C)[C@@H](OC(=O)CCC(=O)O)CC[C@]2(C)[C@H]3C(=O)C=C4[C@@H]5C[C@@](C)(C(=O)O)CC[C@]5(C)CC[C@@]4(C)[C@]3(C)CC[C@@H]12 [CBX, Carbenoxolone]
fast and slow-modes of TFLLR-induced glutamate release (TFLLR-induced GluR1L497Y-mediated current) [3]: does not inhibit; also recorded: did not show any significant effect

OC[C@H]1O[C@@H](n2cnc3c(NC4CCCC4)nc(Cl)nc32)[C@H](O)[C@@H]1O [CCPA, 2-chloro-N(6)-cyclopentyladenosine]
fast-mode of glutamate release induced by the agent itself (astrocyte [1]): induces mainly fast GluR1-mediated inward current; also recorded: activated a fast-mode; also recorded: induce fast-mode
slow-mode of glutamate release induced by the agent itself (astrocyte [1]): without a measurable Ca^2+ increase or a slow-mode
astrocytic Ca2+ increase induced by the agent itself (astrocyte [2]; pressure-applied 100 ms): does not induce; also recorded: without a measurable Ca^2+ increase

N#Cc1cc2c(cc1[N+](=O)[O-])=NC(=O)C(=O)N=2 [CNQX, 6-cyano-7-nitroquinoxaline-2,3-dione]
fast and slow-modes of TFLLR-induced glutamate release (TFLLR-induced GluR1L497Y-mediated current) [3]: blocked
fast-mode of TFLLR-induced glutamate release [3]: blocked
slow-mode of TFLLR-induced glutamate release [3]: blocked

C/C=C/[C@H]1O[C@@](O)([C@@H](C)[C@H](O)[C@H](C)[C@H]2OC(=O)/C(OC)=C/C(C)=C/[C@@H](C)[C@@H](O)[C@@H](CC)[C@@H](O)[C@H](C)C/C(C)=C/C=C/[C@@H]2OC)C[C@@H](O[C@H]2C[C@@H](O)[C@H](OC(N)=O)[C@@H](C)O2)[C@@H]1C [Concanamycin A]
1 mM glutamate-induced GluR1L497Y-mediated current of sensor cell (GluR1-L497Y): reduced
surface expression of GluR1-L497Y in the sensor cell (GluR1-L497Y): almost completely eliminated
fast and slow-modes of TFLLR-induced glutamate release (TFLLR-induced GluR1L497Y-mediated current) [3]: appeared to block

[Cs+] [Cs^+]
fast and slow-modes of TFLLR-induced glutamate release (TFLLR-induced GluR1L497Y-mediated current) [3]: did not show any significant effect

CCCCC1(C2CCCC2)Cc2cc(OCCCC(=O)O)c(Cl)c(Cl)c2C1=O (centres unmarked) [DCPIB, 4-(2-butyl-6,7-dichloro-2-cyclopentylindan-1-on-5-yl)oxybutyric acid]
fast and slow-modes of TFLLR-induced glutamate release (TFLLR-induced GluR1L497Y-mediated current) [3]: did not show any significant effect

O=S(=O)(O)c1cc(N=C=S)ccc1C=Cc1ccc(N=C=S)cc1S(=O)(=O)O [DIDS, 4,4′-Diisothiocyano-2,2′-stilbenedisulfonic acid]
fast and slow-modes of TFLLR-induced glutamate release (TFLLR-induced GluR1L497Y-mediated current) [3]: inhibit; also recorded: blocked

CC(C)Cn1c(=O)n(C)c(=O)c2[nH]cnc21 [IBMX, 3-isobutyl-1-methylxanthine]
fast-mode of TFLLR-induced glutamate release [3]: does not affect

O=C(O)c1cccnc1Nc1cccc(C(F)(F)F)c1 [NFA, Niflumic acid]
1 mM glutamate-induced GluR1L497Y-mediated current of sensor cell (GluR1-L497Y): does not affect
fast and slow-modes of TFLLR-induced glutamate release (TFLLR-induced GluR1L497Y-mediated current) [3]: inhibit; also recorded: blocked

O=C(O)c1cc([N+](=O)[O-])ccc1NCCCc1ccccc1 [NPPB, 5-Nitro-2-(3-phenylpropylamino)benzoic Acid]
fast and slow-modes of TFLLR-induced glutamate release (TFLLR-induced GluR1L497Y-mediated current) [3]: blocked

CC[N+](CC)(CC)CC [TEA]
fast and slow-modes of TFLLR-induced glutamate release (TFLLR-induced GluR1L497Y-mediated current) [3]: did not show any significant effect

C=C[C@H]1C[N@@]2CC[C@H]1C[C@H]2[C@H](O)c1ccnc2ccc(OC)cc12 [quinine]
fast and slow-modes of TFLLR-induced glutamate release (TFLLR-induced GluR1L497Y-mediated current) [3]: inhibit; also recorded: blocked

C-terminus of Phosducin: C-terminus of mouse phosducin (251-278 a.a., SEQ ID NO: 6), over-expressed; inhibits Gαi-Gβγ dissociation
fast-mode of TFLLR-induced glutamate release [3]: almost completely inhibited; also recorded: inhibition of the fast-mode
TFLLR-induced astrocytic Ca2+ transient (astrocyte [2]): without affecting
TFLLR-induced astrocytic Ca2+ transient (astrocyte [2]; listed as Phosducin C-terminal fragment): do not inhibit

TFLLR-NH2
GluR1-mediated current induced in sensor HEK cell without astrocyte (GluR1-L497Y): does not induce
time from TFLLR to slow peak ([3]; n=31): 32.8 ± 2.6 s
time from TFLLR to Ca2+ peak (astrocyte [2]; n=31): 10.8 ± 0.7 s

β-ARK-c term: C-terminus of Beta-adrenergic receptor kinase (SEQ ID NO: 5), over-expressed; inhibits Gβγ dissociation (WKKELRDAYREAQQLVQRVPKMKNKPRSVQRVPKMKNKPRS; B-Ark(Beta-adrenergic receptor kinase) C-terminus)
TFLLR-induced astrocytic Ca2+ transient (astrocyte [2]): do not inhibit
TFLLR-induced astrocytic Ca2+ transient (astrocyte [2]; listed as […]-ARK): without affecting

B1: RGS-2: Regulatory G protein signaling 2, over-expressed; selectively inhibits the Gq subunit (protein, UniProt P41220 1-211, looked up)
Regulator of G-protein …: MQSAMFLAVQHDCRPMDKSAGSGHKSEEKREKMKRTLLKDWKTRLSYFLQNSSTPGKPKTGKKSKQQAFIKPSPEEAQLWSEAFDELLASKYGLAAFRAFLKSEFCEENIEFWLACEDFKKTKSPQKLSSKARKIYTDFIEKEAPKEINIDFQTKTLIAQNIQEATSGCFTTAQKRVYSLMENNSYPRFLESEFYQDLCKKPQITTEPHAT
TFLLR-induced astrocytic Ca2+ transient (astrocyte [2]): greatly and significantly reduced; also recorded: selectively and significantly inhibited

From patent publication US8871463B2, “Method for screening a glutamate release inhibitor in an astrocyte” (Korea Institute of Science and Technology, priority 2012, dated 2014)
